Experimental data as given in ChEMBL document CHEMBL1201862, “PubChem BioAssay data set” (2004).
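Five compound concentrations were applied to cells in 96-well plates for 48 hours; endpoints were derived by simple linear interpolation of the resulting dose-response curve. Abbreviation: GI50, concentration required for 50% inhibition of growth.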 Activity calls are given as the source filed them. Cut-off read from the data, not from the text of the source: active = GI50 up to about 1.1 µM and inactive = higher.

How the values were obtained:
Assay in all cases: NCI tumour cell line growth inhibition, 48 h
DMS-114 = test system: DMS-114
DMS-273 = test system: DMS-273
M19-MEL = test system: M19-MEL
RXF 631 = test system: RXF 631
XF498 = test system: XF498
HOP-18 = test system: HOP-18
BT-549 = test system: BT-549
Hs-578T = test system: Hs-578T
T47D = test system: T47D

| SMILES | GI50 (DMS-114) | GI50 (DMS-273) | GI50 (M19-MEL) | GI50 (RXF 631) | GI50 (XF498) | GI50 (HOP-18) | GI50 (BT-549) | GI50 (Hs-578T) | GI50 (T47D) |
| --- | --- | --- | --- | --- | --- | --- | --- | --- | --- |
| Cc1nn(-c2ccccc2)c(-c2ccccc2[N+](=O)[O-])c1CC#N | 98.6 µM (inactive) | > 100 µM (inactive) | > 100 µM (inactive) | > 100 µM (inactive) | 21.5 µM (inactive) |  |  |  |  |
| N#CCCOCN(CO)c1nc(N(CO)COCCC#N)nc(N(CO)COCCC#N)n1 | 24.3 µM (inactive) | 18.7 µM (inactive) | 23.8 µM (inactive) |  | 17.5 µM (inactive) | 24.3 µM (inactive) |  |  |  |
| CC1OC(OCC2COC(O)(Oc3c(-c4ccc(O)c(O)c4)oc4cc(O)cc(O)c4c3=O)C(O)C2O)C(O)C(O)C1O (configuration not stated) | > 100 µM (inactive) | > 100 µM (inactive) | > 100 µM (inactive) | > 100 µM (inactive) | > 100 µM (inactive) | > 100 µM (inactive) |  |  |  |
| N#CC(C#N)=C(N)/C(C#N)=C\c1ccnc2ccccc12 | 16.8 µM (inactive) | 17.3 µM (inactive) | 19 µM (inactive) |  | 30.1 µM (inactive) | > 100 µM (inactive) |  |  |  |
| OCCNCO |  | > 100 µM (inactive) | > 100 µM (inactive) |  | > 100 µM (inactive) |  |  |  |  |
| Cc1ccc(NC(=O)c2cccc([N+](=O)[O-])c2O)c(C)c1 | 20.1 µM (inactive) |  | 24.4 µM (inactive) |  |  | 1.02 µM (active) |  |  |  |
| CCc1ccccc1NC(=O)C1=C(C)NC(C)=C(C(=O)Nc2ccccc2CC)C1c1cccc([N+](=O)[O-])c1 | 30.1 µM (inactive) |  | 44.7 µM (inactive) | 46.3 µM (inactive) |  |  |  |  |  |
| C=C(c1ccccc1)c1cc2c(=O)[nH]ccc2n1C | 19.1 µM (inactive) | 27.5 µM (inactive) | 38.6 µM (inactive) |  | 30.5 µM (inactive) |  |  |  |  |
| O=C(O)CCSC(=O)Nc1ccc([N+](=O)[O-])cc1 | > 100 µM (inactive) | > 100 µM (inactive) |  |  |  |  |  |  |  |
| C=C(C)[C@@H](C(=O)OC)N1C(=O)c2ccccc2C1=O |  |  |  |  |  |  | > 100 µM (inactive) | > 100 µM (inactive) | > 100 µM (inactive) |
| O=C(NN1C(=O)C(Cl)C1c1ccccc1Cl)c1ccccc1O (configuration not stated) | 70 µM (inactive) |  | > 100 µM (inactive) |  | 32.7 µM (inactive) | > 100 µM (inactive) |  |  |  |
| Cc1cc(Br)ccc1/N=N/C1C(=O)ON=C1c1ccccc1 (configuration not stated) | 65.6 µM (inactive) | > 100 µM (inactive) | 67.6 µM (inactive) | 51.6 µM (inactive) |  | > 100 µM (inactive) |  |  |  |
| O=[N+]([O-])C1C2C=CC(C2)[C@H]1c1ccco1 (some centres not stated) | > 100 µM (inactive) | > 100 µM (inactive) | > 100 µM (inactive) |  | > 100 µM (inactive) |  |  |  |  |
| CCCCn1c2c(n(CCCC)c1=S)-c1c(n(CCCC)c(=S)n1CCCC)SSc1c(n(CCCC)c(=S)n1CCCC)-c1c(n(CCCC)c(=S)n1CCCC)SSc1c(n(CCCC)c(=S)n1CCCC)-c1c(n(CCCC)c(=S)n1CCCC)SS2 |  |  |  |  |  |  | 3.55 µM (inactive) | 3.25 µM (inactive) | 1.5 µM (inactive) |
| CO/N=C(/C(=O)Nc1c[n+](CC(=O)[O-])cs1)c1csc(N)n1 |  | > 100 µM (inactive) |  |  | > 100 µM (inactive) | > 100 µM (inactive) |  |  |  |
| CC1=NN(c2ccccc2)C(=O)C1C(=O)C(=O)Nc1ccc(C)cc1C (configuration not stated) | > 100 µM (inactive) | > 100 µM (inactive) | > 100 µM (inactive) |  |  | > 100 µM (inactive) |  | > 100 µM (inactive) | > 100 µM (inactive) |
| CCCCc1c2c(nc3c1CCC/C3=C\c1ccccc1)C(=O)CCC2 | 20.7 µM (inactive) | 26.1 µM (inactive) | 18.2 µM (inactive) |  | 12.1 µM (inactive) | 25.6 µM (inactive) |  |  |  |
| CC(=O)n1c(=O)c2cc3c(=O)n(-c4cccc(C#N)c4)c(=O)c3cc2c1=O | > 100 µM (inactive) | 88.1 µM (inactive) | > 100 µM (inactive) | > 100 µM (inactive) |  | > 100 µM (inactive) |  |  |  |
| CC1CCC2(NC1)OC1CC3[C@@H]4CC=C5C=CCC[C@]5(C)C4CC[C@]3(C)C1C2C (some centres not stated) | 20.8 µM (inactive) | > 10 µM (inactive) | 33.9 µM (inactive) |  | 17.6 µM (inactive) | 32.2 µM (inactive) |  |  |  |
| Cc1c2c(c(C)n1-c1ccccc1)C(=O)N(CCN1CCN(c3cccc(C(F)(F)F)c3)CC1)C2=O |  |  |  |  |  |  | > 100 µM (inactive) | > 100 µM (inactive) | 4.29 µM (inactive) |
| c1ccc(C2SCC3=Nc4ccccc4CN32)cc1 (configuration not stated) |  |  |  |  |  |  | > 100 µM (inactive) | 73.8 µM (inactive) | 25.8 µM (inactive) |
| COc1cc(-c2nn3c(=O)n(-c4ccc(Cl)cc4)c(=O)nc3s2)cc(OC)c1OC |  | 23.2 µM (inactive) | > 100 µM (inactive) | 48.1 µM (inactive) |  | 57 µM (inactive) |  |  |  |
| Clc1ccc(-c2nnc(-c3nn(-c4ccccc4)c4nc5ccccc5nc34)o2)cc1 | 26.1 µM (inactive) | 47.5 µM (inactive) | 70.6 µM (inactive) |  | 13 µM (inactive) | > 100 µM (inactive) |  |  |  |
| Cn1c(O)c(C(=O)Nc2cccs2)c(=O)[nH]c1=S | 14.5 µM (inactive) |  | 19.1 µM (inactive) |  |  | 0.0865 µM (active) |  |  |  |
| OC(COc1ccccc1)CN1CCCCC1 (configuration not stated) |  |  |  |  |  |  | > 100 µM (inactive) | > 100 µM (inactive) | > 100 µM (inactive) |

| SMILES | GI50 (DMS-114) | GI50 (DMS-273) | GI50 (M19-MEL) | GI50 (RXF 631) | GI50 (XF498) | GI50 (HOP-18) | GI50 (BT-549) | GI50 (Hs-578T) | GI50 (T47D) |
| --- | --- | --- | --- | --- | --- | --- | --- | --- | --- |
| CC1(C)C2CC(=O)C1(C)C(OCc1ccccc1)C2 (configuration not stated) |  |  |  |  |  |  | 54.6 µM (inactive) | 22 µM (inactive) | 40.4 µM (inactive) |
| COC(=O)c1cc(=O)nc2sc3cccc(C)c3n12 |  |  |  |  |  |  | 55.6 µM (inactive) | 56.2 µM (inactive) | 37.8 µM (inactive) |
| Nc1ccc2c(SCCSc3c4ccccc4nc4cc(N)ccc34)c3ccccc3nc2c1 |  |  |  |  |  |  | > 100 µM (inactive) | > 100 µM (inactive) | > 100 µM (inactive) |
| c1ccc(CCN2CCOCC2)nc1 |  |  |  |  |  |  | > 100 µM (inactive) | > 100 µM (inactive) | > 100 µM (inactive) |
| C(=C\C(Sc1ccccc1)c1ccccc1)/NNC1=NN=C(c2ccccc2)C(c2ccccc2)N1 (configuration not stated) | 35.8 µM (inactive) | 44.6 µM (inactive) | 27.7 µM (inactive) | 30.5 µM (inactive) | 77.1 µM (inactive) | > 100 µM (inactive) |  |  |  |
| CCCCCCOc1ccc(NC2=C(Cl)C(=O)c3cccnc3C2=O)cc1 |  |  |  |  |  |  | 3.22 µM (inactive) | 8.02 µM (inactive) | 1.62 µM (inactive) |
| COc1cc([N+](=O)[O-])ccc1NC(=O)c1cccc([N+](=O)[O-])c1O | 22.7 µM (inactive) |  | 24.6 µM (inactive) | 30.8 µM (inactive) |  | 5.32 µM (inactive) |  |  |  |
| N#CC1=C(N)N(c2ccccc2)C(c2ccco2)C1(C#N)C#N (configuration not stated) |  |  |  |  |  |  | 18.8 µM (inactive) | 36.6 µM (inactive) | 15.2 µM (inactive) |
| CCN(/N=C1\CC2C=CCN(C2)C(=O)Cc2c1[nH]c1ccccc21)S(=O)(=O)c1ccc(C)cc1 (configuration not stated) | 64.6 µM (inactive) | 62.4 µM (inactive) | 76.7 µM (inactive) | 96.4 µM (inactive) | > 100 µM (inactive) |  |  |  |  |
| O=[N+]([O-])C1CC/C(=N/O)c2nonc21 (configuration not stated) |  |  |  |  |  |  | > 10 µM (inactive) | > 10 µM (inactive) | > 10 µM (inactive) |
| CSc1nc2nccnc2c(=O)[nH]1 | > 100 µM (inactive) | > 100 µM (inactive) | > 100 µM (inactive) |  | > 100 µM (inactive) | > 100 µM (inactive) |  |  |  |
| C=C1C(=O)OC2CC(C)C(/C=C/C(C)=O)=CCC12 (configuration not stated) |  |  |  |  |  |  | > 100 µM (inactive) | > 100 µM (inactive) | > 100 µM (inactive) |
| COc1ccc2[nH]c(Cl)c(/C=C3/C(=O)N(c4ccccc4)c4ccccc43)c2c1 |  |  |  |  |  |  | 2.67 µM (inactive) | 4.74 µM (inactive) | 3.76 µM (inactive) |
| Cc1ccc2nc(/C=N/c3ccc(Cl)cc3)cc(C)c2c1 |  |  |  |  |  |  | 13.9 µM (inactive) | 15.8 µM (inactive) | 2.54 µM (inactive) |
| C1=CC(=P(c2ccccc2)(c2ccccc2)c2ccccc2)C=C1 | 4.65 µM (inactive) | 9.91 µM (inactive) | 4.04 µM (inactive) | 19.4 µM (inactive) | 2.91 µM (inactive) |  |  |  |  |
| N#CC(C(=O)C(=O)Nc1ccccc1)c1ccccc1 (configuration not stated) |  | > 100 µM (inactive) | > 100 µM (inactive) |  | > 100 µM (inactive) |  |  |  |  |
| COC(=O)C1=CCC[C@H]2[C@@]1(COC(C)=O)CC[C@@H](C)[C@]2(C)CC(=O)c1ccoc1 |  |  |  |  |  |  | 10.9 µM (inactive) | 13.4 µM (inactive) | 8.47 µM (inactive) |
| N#Cc1cc(Sc2ccc(N)c(C#N)c2)ccc1N |  |  |  |  |  |  | 19 µM (inactive) | 12.6 µM (inactive) | 29 µM (inactive) |
| CS(=O)(=O)C(C#N)c1nc2ccccc2nc1Cl (configuration not stated) | > 100 µM (inactive) | > 100 µM (inactive) | 5.68 µM (inactive) |  | > 100 µM (inactive) |  | > 100 µM (inactive) | 70.6 µM (inactive) | > 100 µM (inactive) |
| COc1ccc(C2ON(c3ccccn3)CC=C2C)cc1 (configuration not stated) | > 100 µM (inactive) | > 100 µM (inactive) | > 100 µM (inactive) | > 100 µM (inactive) | > 100 µM (inactive) | > 100 µM (inactive) |  |  |  |
| COc1cc2c3c4[n+](cc2c(OC)c1OC)CCC4CCC3 (configuration not stated) |  |  |  |  |  |  | > 100 µM (inactive) | > 100 µM (inactive) | 24.9 µM (inactive) |
| COc1ccc(-c2cc(=O)c3c(O)cccc3o2)c(OC)c1OC | 18.6 µM (inactive) | 13.7 µM (inactive) | > 100 µM (inactive) | 66.8 µM (inactive) | 65.6 µM (inactive) |  |  |  |  |
| COc1cc(-c2cc(=O)c3ccccc3o2)ccc1N | 63.5 µM (inactive) | 50.2 µM (inactive) | > 100 µM (inactive) |  | 24 µM (inactive) | 27.5 µM (inactive) |  |  |  |
| CS(=O)(=O)C1(Br)S(=O)(=O)OCCOS1(=O)=O | > 100 µM (inactive) | > 100 µM (inactive) | > 100 µM (inactive) |  | > 100 µM (inactive) |  |  |  |  |
| CC(C)(/N=N/C(C)(C)C(=N)N)C(=N)N |  |  |  |  |  |  | > 100 µM (inactive) | > 100 µM (inactive) | > 100 µM (inactive) |
